Source: ChEMBL document CHEMBL1131520, “A novel (benzodifuranyl)aminoalkane with extremely potent activity at the 5-HT2A receptor” (J Med Chem, 1998)

Legend:
[1] = target: 5-hydroxytryptamine receptor 2A (Rattus norvegicus, UniProt P14842); test: […] measured for 5-hydroxytryptamine 2A receptor using [3H]-MDL- 100,907 as radioligand in rat cortical homogenates.; assay type: tissue-based
[2] = target: T1, 5-hydroxytryptamine receptor 2C (Homo sapiens, UniProt P28335); test: Binding activity against cloned human 5-hydroxytryptamine 2C receptor using [125I]DOI as the radioligand.
T1 sequence (P28335 whole entry): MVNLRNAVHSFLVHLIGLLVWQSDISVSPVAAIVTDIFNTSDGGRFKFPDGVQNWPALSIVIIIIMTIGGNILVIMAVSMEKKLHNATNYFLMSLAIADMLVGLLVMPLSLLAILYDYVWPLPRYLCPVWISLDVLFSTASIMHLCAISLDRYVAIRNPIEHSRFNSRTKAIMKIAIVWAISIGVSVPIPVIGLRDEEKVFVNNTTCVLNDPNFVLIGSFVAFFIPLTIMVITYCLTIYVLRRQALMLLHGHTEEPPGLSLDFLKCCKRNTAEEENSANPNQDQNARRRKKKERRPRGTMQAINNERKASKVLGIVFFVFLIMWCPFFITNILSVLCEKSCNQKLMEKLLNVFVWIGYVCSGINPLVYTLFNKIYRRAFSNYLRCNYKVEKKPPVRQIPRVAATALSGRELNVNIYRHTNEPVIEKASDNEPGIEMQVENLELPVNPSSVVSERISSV

Rattus norvegicus [3] = organism: Rattus norvegicus; test: Drug discrimination studies in rats(16-19) expressed as ED50 value; assay type: functional
Rattus norvegicus [4] = organism: Rattus norvegicus; test: Drug discrimination studies in rats(9-12) expressed as ED50 value; assay type: functional
[5] = target: 5-hydroxytryptamine receptor 2B (Homo sapiens, UniProt P41595); test: Binding activity against cloned human 5-hydroxytryptamine 2B receptor using [3H]5-HT as the radioligand.
Chain of 5-hydroxytryptamine receptor 2B (P41595 whole entry): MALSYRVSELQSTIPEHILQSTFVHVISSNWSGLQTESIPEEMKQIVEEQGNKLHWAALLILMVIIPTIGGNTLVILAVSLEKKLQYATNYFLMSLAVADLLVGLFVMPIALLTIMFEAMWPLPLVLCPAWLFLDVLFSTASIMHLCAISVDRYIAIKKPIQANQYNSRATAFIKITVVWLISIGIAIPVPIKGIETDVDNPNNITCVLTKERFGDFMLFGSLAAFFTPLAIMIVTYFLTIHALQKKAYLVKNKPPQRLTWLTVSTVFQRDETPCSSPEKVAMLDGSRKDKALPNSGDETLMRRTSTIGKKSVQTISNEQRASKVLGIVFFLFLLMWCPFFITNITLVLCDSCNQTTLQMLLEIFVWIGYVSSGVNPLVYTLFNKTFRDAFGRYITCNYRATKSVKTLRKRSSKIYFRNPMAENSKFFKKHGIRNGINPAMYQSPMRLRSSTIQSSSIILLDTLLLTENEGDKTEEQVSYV

[6] = target: 5-hydroxytryptamine receptor 2A (Homo sapiens, UniProt P28223); test: Binding activity against cloned human 5-hydroxytryptamine 2A receptor using [125I]DOI as the radioligand.
Chain of 5-hydroxytryptamine receptor 2A (Homo sapiens, UniProt P28223) (P28223 whole entry): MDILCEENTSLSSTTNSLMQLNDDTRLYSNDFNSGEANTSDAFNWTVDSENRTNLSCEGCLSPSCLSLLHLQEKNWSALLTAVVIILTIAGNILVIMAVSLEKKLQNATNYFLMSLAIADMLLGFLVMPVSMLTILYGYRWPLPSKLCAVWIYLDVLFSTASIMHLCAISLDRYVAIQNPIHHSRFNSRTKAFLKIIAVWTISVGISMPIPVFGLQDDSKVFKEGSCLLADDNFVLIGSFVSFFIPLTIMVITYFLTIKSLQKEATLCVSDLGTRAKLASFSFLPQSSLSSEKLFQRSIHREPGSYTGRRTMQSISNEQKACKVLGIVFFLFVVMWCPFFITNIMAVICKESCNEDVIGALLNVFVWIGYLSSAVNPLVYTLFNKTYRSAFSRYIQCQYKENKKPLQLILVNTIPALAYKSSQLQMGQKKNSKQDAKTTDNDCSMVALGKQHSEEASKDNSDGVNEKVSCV

Rattus norvegicus [7] = organism: Rattus norvegicus; test: Drug discrimination studies in rats(12) expressed as ED50 value; assay type: functional
Rattus norvegicus [8] = organism: Rattus norvegicus; test: Drug discrimination studies in rats(22) expressed as ED50 values; assay type: functional
Rattus norvegicus [9] = organism: Rattus norvegicus; test: Drug discrimination studies in rats(7-15) expressed as ED50 value; assay type: functional

Chain of 5-hydroxytryptamine receptor 2A (Rattus norvegicus, UniProt P14842) (P14842 whole entry): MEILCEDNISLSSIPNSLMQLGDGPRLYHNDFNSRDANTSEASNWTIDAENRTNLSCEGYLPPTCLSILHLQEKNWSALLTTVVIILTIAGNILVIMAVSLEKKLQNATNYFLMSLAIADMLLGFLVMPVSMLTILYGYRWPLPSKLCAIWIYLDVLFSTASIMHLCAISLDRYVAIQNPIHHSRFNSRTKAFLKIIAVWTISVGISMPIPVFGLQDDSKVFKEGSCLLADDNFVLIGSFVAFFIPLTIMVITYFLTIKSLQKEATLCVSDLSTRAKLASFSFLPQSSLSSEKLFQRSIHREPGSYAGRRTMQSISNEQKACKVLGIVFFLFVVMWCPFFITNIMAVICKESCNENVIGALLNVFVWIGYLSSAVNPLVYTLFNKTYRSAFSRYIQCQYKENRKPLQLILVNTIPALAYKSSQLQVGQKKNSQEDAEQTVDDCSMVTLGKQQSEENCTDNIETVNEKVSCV

| SMILES | Ki [1] | Ki [2] | Ki [5] | further results |
| --- | --- | --- | --- | --- |
| CC(N)Cc1c2c(c(Br)c3c1OCC3)OCC2 (configuration not stated) | 14.8 nM |  |  |  |
| CC(N)Cc1c2ccoc2c(Br)c2ccoc12 (racemic) |  | 0.02 nM | 0.19 nM | ED50 (Rattus norvegicus [3]): 0.022 µmol/kg; ED50 (Rattus norvegicus [4]): 0.039 µmol/kg; Ki [6]: 0.04 nM |
| CC(N)Cc1c2ccoc2c(Br)c2ccoc12 (configuration not stated) | 0.23 nM |  |  |  |
| COc1cc(CC(C)N)c(OC)cc1I (configuration not stated) |  | 1.82 nM | 42.7 nM | ED50 (Rattus norvegicus [7]): 0.3 µmol/kg |
| CCN(CC)C(=O)[C@@H]1C=C2c3cccc4[nH]cc(c34)C[C@H]2N(C)C1 [LYSERGIDE] |  |  |  | ED50 (Rattus norvegicus [8]): 0.04 µmol/kg |
| CC(N)Cc1c2c(c(Br)c3c1OCC3)OCC2 (racemic) |  |  |  | ED50 (Rattus norvegicus [9]): 0.061 µmol/kg |
